This passage reports Km, kcat and kcat/Km results from ChEMBL document CHEMBL1137670, “First occurrence of an IMP metallo-beta-lactamase in Aeromonas caviae: IMP-19 in an isolate from France” (2007).

Assay [1] concerns Acinetobacter baumannii. The experiment in a line: Activity of Acinetobacter baumannii AC-54/97 metallo-beta-lactamase IMP-2 expressed in Escherichia coli DH5alpha.
For assay [2], the system named is Acinetobacter baumannii. The experiment in a line: Ratio of Kcat to Km of Acinetobacter baumannii AC-54/97 metallo-beta-lactamase IMP-2 expressed in Escherichia coli DH5alpha.

The structures appear in SMILES notation.

As to `CC(C)(O/N=C(\C(=O)N[C@@H]1C(=O)N2C(C(=O)[O-])=C(C[n+]3ccccc3)CS[C@H]12)c1csc(N)n1)C(=O)O`, in assay [1], the Km (as a rule, the concentration of substrate that gives half-maximal velocity) was 111 µM and the kcat (commonly the maximal rate divided by the concentration of active sites) was 21 s⁻¹. In assay [2], the kcat/Km came out at 0.19.

For the molecule `CO[C@@]1(NC(=O)Cc2cccs2)C(=O)N2C(C(=O)O)=C(COC(N)=O)CS[C@@H]21`, in assay [1], the Km was 7 µM and the kcat worked out at 7 s⁻¹. Also, the kcat/Km in assay [2] was 1.

With `CC1(C)S[C@@H]2[C@H](NC(=O)[C@H](N)c3ccc(O)cc3)C(=O)N2[C@H]1C(=O)O`, in assay [1], the Michaelis-Menten constant (Km) turned out to be 110 µM and the turnover number (kcat) was 23 s⁻¹. For the same molecule, the kcat/Km in assay [2] is 0.21.

In the case of `CC1(C)S[C@@H]2[C@H](NC(=O)[C@H](C(=O)O)c3ccsc3)C(=O)N2[C@H]1C(=O)O`, in assay [1], the Km is 700 µM and the kcat was found to be 252 s⁻¹. Moreover, the kcat/Km in assay [2] was 0.36.

As for `C[C@@H](O)[C@H]1C(=O)N2C(C(=O)O)=C(S[C@@H]3CN[C@H](C(=O)N(C)C)C3)[C@H](C)[C@H]12`, in assay [1], the Michaelis constant (Km) was found to be 0.3 µM and the catalytic constant (kcat) was determined as 1 s⁻¹. Also, the kcat/Km in assay [2] turned out to be 3.3.

Turning to `C[C@@H](O)[C@H]1C(=O)N2C(C(=O)O)=C(SCCNC=N)C[C@H]12`, in assay [1], the Michaelis constant (Km) worked out at 24 µM and the kcat turned out to be 22 s⁻¹. Moreover, in assay [2], the kcat/Km amounted to 0.92.
